The assay addresses T1, T. cruzi CYP51 (Trypanosoma cruzi, UniProt Q7Z1V1).
T1 construct: had the first 21 residues upstream of K22 replaced with the fragment MAKKKKK; His6 (C); made in house
In words: HTS spectral-mode binding screen, type II difference spectra scored 0-5. The following applies: spectral mode, four serial dilutions 2 µM to 12.5 µM, 2 µM CYP51.
T1 sequence (Q7Z1V1 15-481, looked up, natural form): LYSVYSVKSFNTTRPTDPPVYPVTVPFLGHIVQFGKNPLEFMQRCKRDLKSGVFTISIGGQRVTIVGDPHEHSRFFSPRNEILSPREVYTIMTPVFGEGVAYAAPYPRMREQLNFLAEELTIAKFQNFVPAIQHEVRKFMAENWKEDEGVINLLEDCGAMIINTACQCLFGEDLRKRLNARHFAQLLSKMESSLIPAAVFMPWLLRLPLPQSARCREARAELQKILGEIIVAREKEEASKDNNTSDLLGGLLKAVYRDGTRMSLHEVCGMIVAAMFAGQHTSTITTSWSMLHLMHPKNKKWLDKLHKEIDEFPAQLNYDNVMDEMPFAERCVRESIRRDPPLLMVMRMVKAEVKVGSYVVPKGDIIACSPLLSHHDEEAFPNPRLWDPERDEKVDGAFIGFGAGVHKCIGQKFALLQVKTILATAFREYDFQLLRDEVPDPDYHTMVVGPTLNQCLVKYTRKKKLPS
Consider `COc1cc(OC)cc(-c2cc3nc(C)c(CCC(=O)NCc4cccnc4)c(C)n3n2)c1` [Compound 171], for which the HTS binding score is on record as 5.

In turn, `CC1=C(C(=O)Nc2ccc(F)cc2F)C(c2cccnc2)C2=C(O)CC(C)(C)CC2=N1` (stereo not shown) [Compound 159] had an HTS binding score of 4.

`O=C(NCCCn1ccnc1)c1ccccc1Br` [Compound 66] came in with an HTS binding score of 4.

The compound `CCO/C(O)=C1/C(C)=NC2=C(C(=O)CC(c3ccccc3)C2)C1c1cccnc1` (stereo not shown) [Compound 136] showed an HTS binding score of 4.

In the case of `COc1cccc(CNCc2cccnc2)c1OCc1ccc(Cl)cc1` [Compound 120], the HTS binding score came out at 4.

As to `Cc1sc(NC(=O)c2ccco2)c(C(c2cccnc2)N2CCN(CCO)CC2)c1C` (stereo not shown) [Compound 168], the HTS binding score was 4.

In turn, `O=c1c2cnn(-c3ccc(Cl)cc3)c2ncn1Cc1cccnc1` [Compound 98] came in with an HTS binding score of 5.

With `c1cc(-c2nnn(CCOCCn3nnc(-c4ccncc4)n3)n2)ccn1` [Compound 117], the HTS binding score is 4.

For the compound `C=CCOc1ccc(C2c3c(-c4ccccc4O)n[nH]c3C(=O)N2Cc2ccncc2)cc1OCC` (stereo not shown) [Compound 181], the HTS binding score is reported as 5.

In the case of `O=C(CCCCCN1C(=O)c2cccc3cccc(c23)C1=O)NCc1cccnc1` [Compound 141], the HTS binding score worked out at 4.

Regarding `O=C1C(c2ccncc2)N(CCC2=CCCCC2)C(=O)CN1C1CCCCC1` (stereo not shown) [Compound 131], the HTS binding score stood at 4.

In turn, `O=C(c1ccc(Cl)cc1)C(Oc1ccc(Cl)cc1)n1cncn1` (stereo not shown) [Compound 107] gave an HTS binding score of 5.

`COc1ccc(C(=O)C(OC(=O)c2ccncc2)c2ccccc2)cc1` (stereo not shown) [Compound 106] came in with an HTS binding score of 4.

The compound `N=C(NOC(=O)/C=C/c1ccccc1Cl)c1ccncc1` [Compound 60] registered an HTS binding score of 4.

As to `CC(C)N(CCc1ccncc1)/C(S)=N/C1CCCCC1` [Compound 64], the HTS binding score is on record as 5.

`Cc1cc(Cl)ccc1OCCCC(=O)Nc1cccnc1` [Compound 62] registered an HTS binding score of 4.

`O=C(CNCc1cccnc1)Nc1ccc(OC(F)(F)F)cc1` [Compound 82] returned an HTS binding score of 4.

`COc1ccc(CNc2nc3ccccc3c3nc(-c4ccncc4)nn23)cc1` [Compound 132] had an HTS binding score of 5.

For the compound `CC1(C)CC(=O)C2=C(C1)c1c(ccc3ccccc13)NC2c1cccnc1` (stereo not shown) [Compound 114], the HTS binding score was determined as 5.

For the compound `CCOC(=O)c1c(C)n(-c2ccc(C)cc2)c2ccc(OCC(O)Cn3ccnc3)cc12` (stereo not shown) [Compound 165], the HTS binding score is 4.

Take `C=CCn1c(=O)c(C(=O)NCc2ccncc2)c(O)c2ccccc21` [Compound 94]: the HTS binding score was 4.

As for `O=C(CN(c1ccc(Cl)cc1Cl)S(=O)(=O)c1ccccc1)NCc1ccncc1` [Compound 173], the HTS binding score was found to be 4.

Take `CCC(C)(C)c1ccc(OCC(=O)Nc2ccncc2)cc1` [Compound 58]: the HTS binding score was 4.

In turn, `O=C(Cn1nc(-c2ccc(Cl)cc2)c2ccccc2c1=O)NCc1cccnc1` [Compound 145] gave an HTS binding score of 4.

`Cc1c(C(=O)Nc2ccncc2)sc2nc(-c3ccccc3)cn12` [Compound 92] returned an HTS binding score of 4.

`COc1ccc(-c2cc(C(F)(F)F)nc(NCc3cccnc3)n2)cc1OC` [Compound 137] came in with an HTS binding score of 4.

In turn, `N=C(NOC(=O)c1ccc(Br)o1)c1ccncc1` [Compound 69] came in with an HTS binding score of 4.

`COc1ccc(CNc2nc(-c3cccnc3)nn2S(=O)(=O)c2ccccc2)cc1` [Compound 154] registered an HTS binding score of 4.

The compound `OC1=C2C(=Nc3nc(-c4cccnc4)nn3C2c2ccc(Cl)cc2)CCC1` (stereo not shown) [Compound 128] had an HTS binding score of 4.

Regarding `O=C(NCc1cccnc1)c1cc2nc(-c3ccco3)cc(C(F)(F)Cl)n2n1` [Compound 143], the HTS binding score is 5.

As to `CCc1nc(SCc2cccnc2)c(C#N)c(C(F)(F)F)c1C` [Compound 97], the HTS binding score is 5.

As to `N#CC1=C(N)Oc2nc(SCc3ccc(Cl)cc3)nc(N)c2C1c1cccnc1` (stereo not shown) [Compound 158], the HTS binding score stood at 4.

The compound `O=C(CSc1nc(-c2cccs2)cc(C(F)(F)F)n1)NCc1ccncc1` [Compound 150] yielded an HTS binding score of 4.

Compound `Cc1coc(NC(=O)c2sc3nc(-c4ccncc4)cc(C(F)(F)F)c3c2N)n1` [Compound 153] gave an HTS binding score of 4.

As to `Cc1ccc2nc(NC(=O)C3CCN(S(=O)(=O)c4cccnc4)CC3)sc2c1` [Compound 152], the HTS binding score is 4.

`O=S(=O)(NCc1csc(-c2cccnc2)n1)c1ccc(Br)cc1` [Compound 149]: the HTS binding score is given as 5.

Consider `O=C(CCCSc1nc(-c2ccco2)cc(C(F)(F)F)n1)NCc1ccncc1` [Compound 156], for which the HTS binding score was found to be 4.

Compound `Cc1n[nH]c(C)c1CCc1nc2c3ccccc3nc(NCc3cccnc3)n2n1` [Compound 140] came in with an HTS binding score of 5.

Consider `COc1cccc(C2C(C(=O)Nc3cccnc3)=C(C)Nc3nc(-c4cccc(C)c4)nn32)c1OC` (stereo not shown) [Compound 182], for which the HTS binding score was found to be 4.

As to `COc1ccc(NC(=O)C2=C(C)Nc3nc(-c4ccccc4)nn3C2c2ccncc2)cc1` (stereo not shown) [Compound 166], the HTS binding score stood at 5.

The compound `N#Cc1nc(COc2ccccc2)oc1NCCCn1ccnc1` [Compound 81] came in with an HTS binding score of 4.

As to `O=C(NCCCn1ccnc1)C1CC(c2cccc(Br)c2)=NO1` (stereo not shown) [Compound 126], the HTS binding score amounted to 4.

For the compound `c1ccc(-c2cc(NCCCn3ccnc3)n3c(n2)nc2ccccc23)cc1` [Compound 119], the HTS binding score is recorded as 4.

Take `Cc1cc(Cl)ccc1OCCCC(=O)NCc1cccnc1` [Compound 77]: the HTS binding score came out at 4.

On to `COc1ccc2nc3oc(C(=O)NCc4cccnc4)cc3cc2c1` [Compound 90], for which the HTS binding score was determined as 5.

With `O=P(Nc1cccnc1)(Oc1ccccc1Cl)Oc1ccccc1Cl` [Compound 138], the HTS binding score stood at 5.

`COc1ccccc1C(=O)O/N=C(\c1ccccc1)c1ccncc1` [Compound 89] came in with an HTS binding score of 4.

The compound `Cc1[nH]c2ccccc2c1C(Nc1ccc(F)cc1)c1ccncc1` (stereo not shown) [Compound 87] came in with an HTS binding score of 4.

Regarding `O=C(NCc1cccnc1)c1ccc(COc2ccccc2Cl)o1` [Compound 103], the HTS binding score is recorded as 4.

As for `O=C(c1ccncc1)N(c1ccc2oc3c(c2c1)CCCC3)S(=O)(=O)c1cccs1` [Compound 167], the HTS binding score worked out at 4.

Regarding `Cc1c(C(=O)N2CCCCC2c2cccnc2)sc2nc3n(c(=O)c12)CCCCC3` (stereo not shown) [Compound 157], the HTS binding score was 4.

In turn, `COc1ccc(-c2nc3n(n2)C(c2cccs2)C(C(=O)Nc2cccnc2)=C(C)N3)cc1` (stereo not shown) [Compound 170] came in with an HTS binding score of 4.

`COc1cc(OC)cc(-c2cc3nc(C)c(CCC(=O)Nc4cccnc4)c(C)n3n2)c1` [Compound 163] displayed an HTS binding score of 4.

Turning to `Cc1sc2nc(SCC(=O)NCCCn3ccnc3)nc(O)c2c1C` [Compound 127], the HTS binding score is 4.

Turning to `O=C(NCc1cccnc1)c1cc2c(=O)oc3ccccc3c2s1` [Compound 95], the HTS binding score is listed as 5.

The values above are taken from publication PMC3409115, “Diverse Inhibitor Chemotypes Targeting Trypanosoma cruzi CYP51” (PLoS Neglected Tropical Diseases, 2012).
